These results are taken from patent US12209072B2, “Cyclopentyl acids as LPA antagonists” (BRISTOL-MYERS SQUIBB COMPANY, priority 2018, dated 2025).

In the experiment the target is T1, human LPA1 (Homo sapiens, UniProt Q92633).
T1 construct: expressed in transfected cells; host or cells: Chinese hamster ovary (CHO) cells
As to the kind of experiment: LPA1 functional antagonist assay (LPA-induced calcium flux). Conditions: CHO cells overexpressing human LPA1; inhibition of calcium flux induced by 10 nM LPA; read-out: hLPA1 IC50. The experiment is classed as cell-based. The protocol: The effectiveness of compounds of the present invention as LPA1 inhibitors can be determined in an LPA1 functional antagonist assay as follows:
Chinese hamster ovary cells overexpressing human LPA1 were plated overnight (15,000 cells/well) in poly-D-lysine coated 384-well microplates (Greiner bio-one, Cat #781946) in DMEM/F12 medium (Gibco, Cat #11039). Following overnight culture, cells were loaded with calcium indicator dye (AAT Bioquest Inc, Cat #34601) for 30 minutes at 37° C. The cells were then equilibrated to room temperature for 30 minutes before the assay. Test compounds solubilized in DMSO were transferred to 384 well non-binding surface plates (Corning, Cat #3575) using the Labcyte Echo acoustic dispense and diluted with assay buffer [1×HBSS with calcium/magnesium (Gibco Cat #14025-092), 20 mM HEPES (Gibco Cat #15630-080) and 0.1% fatty acid free BSA (Sigma Cat #A9205)] to a final concentration of 0.5% DMSO. Diluted compounds were added to the cells by FDSS6000 (Hamamatsu) at final concentrations ranging from 0.08 nM to 5 μM. and were then incubated for 20 min at room temperature at which time LPA (Avanti Polar Lipids Cat #857130C) was added at final concentrations of 10 nM to stimulate the cells. The compound IC50 value was defined as the concentration of test compound which inhibited 50% of the calcium flux induced by LPA alone. IC50 values were determined by fitting data to a 4-parameter logistic equation (GraphPad Prism, San Diego CA).

T1 sequence (Q92633 whole entry): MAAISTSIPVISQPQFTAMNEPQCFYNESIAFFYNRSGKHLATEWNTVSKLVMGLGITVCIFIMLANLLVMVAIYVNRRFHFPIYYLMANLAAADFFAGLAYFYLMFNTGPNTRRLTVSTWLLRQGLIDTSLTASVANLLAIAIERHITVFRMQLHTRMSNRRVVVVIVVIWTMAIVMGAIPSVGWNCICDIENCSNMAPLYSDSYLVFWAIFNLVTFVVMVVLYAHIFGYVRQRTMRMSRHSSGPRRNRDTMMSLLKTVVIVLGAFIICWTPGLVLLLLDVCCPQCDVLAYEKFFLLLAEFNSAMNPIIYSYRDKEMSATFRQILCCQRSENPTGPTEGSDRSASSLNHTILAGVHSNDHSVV

Turning to `Cc1nc(-c2onc(C)c2COC(=O)N(C)C2CCCC2)ccc1O[C@H]1CC[C@H](C(C)(C)C(=O)O)C1` (racemic) [Example 52, (±)-trans-2-[3-({6-[4-({[cyclopentyl(methyl)carbamoyl]oxy}methyl)-3-methyl-1,2-oxazol-5-yl]-2-methyl-pyridin-3-yl}oxy)cyclopentyl]-2-methylpropanoic acid], the half-inhibitory concentration (IC50) turned out to be 8 nM. The same measure for `Cc1nc(-c2nnn(C)c2CNC(=O)OCc2ccccc2)cnc1O[C@@H]1CC[C@@H](C(=O)O)C1` (racemic) [Example 15, (±)-Trans-3-((5-(5-((((benzyloxy)carbonyl)amino)methyl)-1-methyl-1H-1,2,3-triazol-4-yl)-3-methylpyrazin-2-yl)oxy)cyclopentanecarboxylic Acid]: 714 nM; for `Cc1nc(-c2nnn(C)c2COC(=O)N(C)CC2CCC2)ccc1O[C@H]1CC[C@H](C2(C(=O)O)CC2)C1` (racemic) [Example 53, (±)-trans-1-[3-({6-[5-({[(cyclobutyl-methyl)(methyl)carbamoyl]oxy}methyl)-1-methyl-1H-1,2,3-triazol-4-yl]-2-methylpyridin-3-yl}oxy)cyclo-pentyl]cyclopropane-1-carboxylic acid]: 14 nM. Take `Cc1nc(-c2nnn(C)c2COC(=O)N(C)CC2CCC2)cnc1O[C@H]1CC[C@H](CC(=O)O)C1` (racemic) [Example 26, (±)-2-(Trans-3-((5-(5-((((cyclobutylmethyl)(methyl)carbamoyl)oxy)methyl)-1-methyl-1H-1,2,3-triazol-4-yl)-3-methylpyrazin-2-yl)oxy)cyclopentyl)acetic Acid]: the IC50 stood at 371 nM. On to `Cc1noc(-c2ccc(O[C@H]3CC[C@H](C(=O)O)C3)cc2)c1NC(=O)O[C@H](C)c1ccccc1` (single isomer, unassigned) [Example 2], for which the half-inhibitory concentration (IC50) was 31 nM. On to `Cc1nc(-c2nnn(C)c2COC(=O)N(C)CC2CCC2)c(F)cc1O[C@H]1CC[C@H](CC(=O)O)C1` (racemic) [Example 70, (±)-trans-2-[3-({6-[5-({[(cyclobutyl-methyl)(methyl)carbamoyl]oxy}methyl)-1-methyl-1H-1,2,3-triazol-4-yl]-5-fluoro-2-methyl-pyridin-3-yl}oxy)cyclopentyl]acetic acid], for which the IC50 worked out at 220 nM.

On to `Cn1nnc(-c2ccc(OC[C@@H]3CC[C@H](C(=O)O)C3)cn2)c1CNc1nccc(-c2ccccn2)n1` (relative stereo) [Example 37, cis-3-(((6-(1-methyl-5-(((4-(pyridin-2-yl)pyrimidin-2-yl)amino)methyl)-1H-1,2,3-triazol-4-yl)pyridin-3-yl)oxy)methyl)cyclopentane-1-carboxylic acid], for which the IC50 amounted to 172 nM. For `Cc1nc(-c2nnn(C)c2COC(=O)N(C)CC2CCC2)ccc1O[C@H]1CC[C@H](CC(=O)O)C1` (single isomer, unassigned) [Example 7, (±)-Trans-2-((1,3)-3-((6-(5-((((cyclobutylmethyl)(methyl)carbamoyl)oxy)methyl)-1-methyl-1H-1,2,3-triazol-4-yl)-2-methylpyridin-3-yl)oxy)cyclopentyl) acetic Acid], the IC50 was determined as 750 nM.

On to `Cc1noc(-c2ccc(O[C@H]3CC[C@@H](C(=O)O)C3)cc2)c1COC(=O)N(C)C1CCCC1` (racemic) [Example 71, (±)-cis-3-{4-[4-({[cyclopentyl(methyl)carbamoyl]oxy}methyl)-3-methyl-1,2-oxazol-5-yl]phenoxy}cyclopentane-1-carboxylic acid], for which the concentration for half-maximal inhibition (IC50) turned out to be 205 nM. Regarding `CCCN(C)C(=O)OCc1c(-c2ccc(O[C@@H]3CC[C@@H](C(=O)O)C3)c(C)n2)nnn1C` (racemic) [Example 23, (±)-trans-3-((2-methyl-6-(1-methyl-5-(((methyl(propyl)carbamoyl)oxy)methyl)-1H-1,2,3-triazol-4-yl)pyridin-3-yl)oxy)cyclopentanecarboxylic acid], the IC50 worked out at 2040 nM. As for `Cc1nc(-c2onc(C)c2COC(=O)N(C)C2CCCC2)ccc1O[C@@H]1CC[C@@H](CC(=O)O)C1` (racemic) [Example 8, (±)-Trans-2-(3-((6-(4-(((cyclopentyl(methyl)carbamoyl)oxy)methyl)-3-methylisoxazol-5-yl)-2-methylpyridin-3-yl)oxy)cyclopentyl)acetic Acid], the IC50 amounted to 13 nM.

Take `Cc1noc(-c2ccc(OC3CCC(C(=O)O)C3)cn2)c1CNc1nccc(-c2ccccc2)n1` (single isomer, unassigned) [Example 46]: the IC50 stood at 56 nM. With `Cc1nc(-c2cnn(C)c2CNC(=O)OCc2ccccc2)cnc1O[C@H]1CC[C@H](C(=O)O)C1` (single isomer, unassigned) [Example 19, Trans-3-((5-(5-((((benzyloxy)carbonyl)amino)methyl)-1-methyl-1H-pyrazol-4-yl)-3-methylpyrazin-2-yl)oxy)cyclopentanecarboxylic Acid], the IC50 came out at 202 nM.

On to `Cc1nc(-c2nnn(C)c2COC(=O)N(C)CC2CCC2)ccc1O[C@H]1CC[C@H](CC(=O)O)C1` (single isomer, unassigned) [Example 49, (±)-trans-2-[3-({6-[5-({[(cyclobutyl-methyl)(methyl)carbamoyl]oxy}methyl)-1-methyl-1H-1,2,3-triazol-4-yl]-2-methylpyridin-3-yl}oxy)cyclopentyl]acetic acid], for which the IC50 worked out at 13 nM. As to `CN(C(=O)OCc1c(-c2ccc(O[C@H]3CC[C@@H](C(=O)O)C3)cc2)nnn1C)C1CCCC1` (relative stereo) [Example 11, Cis-3-(4-(5-(((cyclopentyl(methyl)carbamoyl)oxy)methyl)-1-methyl-1H-1,2,3-triazol-4-yl)phenoxy)cyclo-pentane-1-carboxylic acid], the IC50 came out at 386 nM. The same measure for `Cc1noc(-c2ccc(O[C@@H]3CC[C@@H](C(=O)O)C3)cn2)c1CNc1nccc(-c2ccccn2)n1` (relative stereo) [Example 34, trans-3-((6-(3-methyl-4-(((4-(pyridin-2-yl)pyrimidin-2-yl)amino)methyl)isoxazol-5-yl)pyridin-3-yl)oxy)cyclo-pentane-1-carboxylic acid]: 247 nM; for `Cc1nc(-c2nnn(C)c2COC(=O)N(C)CC2CCC2)ccc1OC[C@H]1CC[C@@H](C(=O)O)C1` (single isomer, unassigned) [Example 32]: 9.7 nM. `Cc1noc(-c2ccc(OC[C@@H]3CC[C@H](C(=O)O)C3)cc2)c1COC(=O)N(C)C1CCCC1` (relative stereo) [Example 41, Cis-3-((4-(4-(((cyclopentyl(methyl)carbamoyl)oxy)methyl)-3-methylisoxazol-5-yl)phenoxy)methyl)cyclopentane-1-carboxylic acid]: the IC50 came out at 325 nM. Turning to `Cc1nc(-c2nnn(C)c2NC(=O)OCC(C)C)ccc1O[C@H]1CC[C@H](CC(=O)O)C1` (racemic) [Example 81, (±)-Trans-2-(3-((6-(5-((isobutoxycarbonyl)amino)-1-methyl-1H-1,2,3-triazol-4-yl)-2-methylpyridin-3-yl)oxy)cyclopentyl)acetic Acid], the 50% inhibitory concentration (IC50) worked out at 613 nM. Take `Cc1nc(-c2nnn(C)c2COC(=O)N(C)C2CCC2)ccc1O[C@H]1CC[C@H](CC(=O)O)C1` (racemic) [Example 63, (±)-trans-2-[3-({6-[5-({[cyclobutylmethyl-1H-1,2,3-triazol-4-yl]-2-(methyl)carbamoyl]oxy}methyl)-1-methylpyridin-3-yl}oxy)cyclopentyl]acetic acid]: the IC50 was found to be 96 nM.
